Laboratory results reported in paper PMC7544691, “Discovery of a novel EGFR ligand DPBA that degrades EGFR and suppresses EGFR-positive NSCLC growth” (Signal Transduction and Targeted Therapy, 2020).

Molecular target: T1, Epidermal growth factor receptor (EGFR) (Homo sapiens, UniProt P00533)
T1 construct: extracellular domain (ECD), recombinant human
Assay: MST with recombinant EGFR ECD (also BIAcore SPR, Kd […]; CETSA in A549 and H1975)
Assay type: binding

T1 sequence (P00533 25-645 limits assumed): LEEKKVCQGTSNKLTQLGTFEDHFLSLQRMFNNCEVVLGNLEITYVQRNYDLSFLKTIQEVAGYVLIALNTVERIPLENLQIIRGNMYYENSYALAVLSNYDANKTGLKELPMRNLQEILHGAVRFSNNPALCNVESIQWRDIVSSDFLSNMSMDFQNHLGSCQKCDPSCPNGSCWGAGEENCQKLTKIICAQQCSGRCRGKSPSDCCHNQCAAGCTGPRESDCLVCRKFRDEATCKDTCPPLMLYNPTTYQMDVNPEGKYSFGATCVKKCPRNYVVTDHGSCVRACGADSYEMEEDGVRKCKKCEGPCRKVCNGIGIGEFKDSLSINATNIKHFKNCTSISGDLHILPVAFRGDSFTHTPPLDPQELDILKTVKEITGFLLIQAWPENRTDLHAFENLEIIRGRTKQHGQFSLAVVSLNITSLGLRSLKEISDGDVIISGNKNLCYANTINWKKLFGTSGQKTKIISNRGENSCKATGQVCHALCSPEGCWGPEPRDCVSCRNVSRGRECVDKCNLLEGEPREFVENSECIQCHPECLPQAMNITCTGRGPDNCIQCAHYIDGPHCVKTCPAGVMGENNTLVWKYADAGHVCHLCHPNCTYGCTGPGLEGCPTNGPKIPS

## C=C(C)[C@@H]1CC[C@]2(C(=O)N3CCC(N4CCCCC4)CC3)CC[C@]3(C)[C@H](CC[C@@H]4[C@@]5(C)CC[C@H](O)[C@@](C)(CO)[C@@H]5CC[C@]43C)[C@@H]12 [compound 187, DPBA]
  Kd: 38.4 ± 1.75 µM
